Source: US20250388867A1, “COMPOSITION AND METHOD FOR CULTURING ORGANOIDS” (ORGANOIDSCIENCES, LTD., priority 2017, published 2025)

How the values were obtained:
[1] = test system: small intestinal organoids; assay: Screening of compound library using organoid proliferation measurement; assay type: cell-based, mouse; conditions: 50 μM in EN culture solution, 4 days
Source text: Small intestinal crypts were isolated from a mouse to be used in experiments for preparing and culturing small intestinal organoids. Specifically, the small intestine was isolated after killing a 5-7 weeks old C57BL/6 mouse weighing 20-25 g by cervical vertebrae dislocation. The small intestine was cut longitudinally from a proximal end to a distal end, and also laterally cut into pieces of about 5 mm length. The piece of small intestine obtained was washed with ice-cooled Dulbecco's phosphate-buffered saline (DPBS) until the supernatant liquid was sufficiently clear. Then, the crypts were isolated by treating with a Gentle Cell Dissociation Reagent (StemCell Technologies, Cambridge, MA), and filtering with a cell strainer.
Compounds which can replace R-spondin in organoid cultures were screened for 8,364 types of compounds included in a representative library of the Korea Chemical Bank.
The small intestinal crypts derived from the small intestine of a 7-week-old C57BL/6 mouse isolated in Example 1 were mixed in Matrigel, and placed in each well of a 96-well plate. […]
The number of living organoids, the number of budding organoids, and the circumference of each organoid were measured using the optical microscope photos. […] The compounds were ranked based on the measured values, and then 295 candidate compounds were selected to be used in a second screening. […]

[2] = test system: small intestinal organoids; assay: Budding characteristics analysis (counts of budding and non-budding organoids); assay type: cell-based, mouse; conditions: 4 days
Source text: The morphological characteristic of the small intestinal organoids is that they grow while budding. In order to check that the budding rate of the small intestinal organoids grown in the RS-246204-added culture solution (hereinafter, RS-246204 culture solution) is similar to that grown in ENR culture solution, the total number of organoids, the number of budding organoids, and the number of non-budding organoids were counted in the wells culturing for 4 days. The rate of budding organoids and non-budding organoids grown in the culture solution containing 50 μM of RS-246204 is about 1:1, which is similar to the rate of organoids grown in the ENR culture solution (see FIG. 2C).

[3] = test system: small intestinal organoids; assay: Organoid circumference by date (growth efficiency); assay type: cell-based, mouse; conditions: RS-246204 culture solution vs ENR culture solution, photographed every day
Procedure: In order to check whether the growth efficiency of the small intestinal organoids grown in the RS-246204 culture solution has a difference, the small intestinal organoids cultured in each culture solution were photographed by an optical microscope every day. The circumference of the individual organoid according to the condition of culture medium and date was measured, and converted into percentage.

[4] = test system: small intestinal organoids; assay: Subculture of small intestinal organoids; assay type: cell-based, mouse; conditions: RS-246204 culture solution
[5] = test system: small intestinal organoids; assay: RT-PCR and qRT-PCR analysis of lineage markers; assay type: cell-based, mouse
Procedure: In order to confirm whether lineage markers specific to the small intestinal organoids are expressed when cultured with RS-246204, RNA analysis was performed. The small intestinal organoids cultured in ENR and RS-246204 culture solutions, respectively, for 4 days were collected. RNA was extracted and cDNA was synthesized, and then RT-PCR was performed. As a marker for intestinal stem cells, goblet cells, paneth cells, enteroendocrine cells and enterocyte, RT-PCR was performed using RNA primers for Lgr5, muc-1 and muc-2, defesing-5, chromogranin A (ChgA), and villin, respectively.
For quantitative analysis, qRT-PCR analysis was performed. AccuPower 2X Greenstar qPCR MasterMix (Bioneer) and Thermal Cycler Dice® Real Time System III (Takara, Japan) were used, and the reaction was performed for 10 seconds at 95° C. (denaturation), 15 seconds at 57° C. (annealing), and 20 seconds at 72° C. (extension). The RNA primers excluded Muc1 among those used in the RT-PCR test, changed the enterocyte marker from villin to Intestinal Alkaline Phosphatase (IAP), and used the same sequence for the rest.

[6] = test system: small intestinal organoids; assay: Immunofluorescence analysis; assay type: cell-based, mouse; conditions: organoids cultured in ENR and RS-246204 culture solutions
[7] = test system: small intestinal organoids; assay: CFTR agonist Forskolin analysis (function maintenance); assay type: cell-based, mouse; conditions: 4 days culture, then forskolin 5 μM, 1 hour
Procedure: In order to check whether functions of small intestinal epithelial cells are maintained in the small intestinal organoids cultured using the RS-246204 culture solution, CFTR agonist Forskolin analysis was performed. The forskolin is a compound which stimulates ion channels to open, thereby promoting the release of moisture. In case of small intestinal organoids, moisture gathers into the lumen by the forskolin stimulation and changes into a large spherical shape, thereby confirming the maintenance of the function of epithelial cells. After culturing for 4 days in RS-246204 culture solution and ENR culture solution, respectively, it was replaced with a culture solution to which forskolin was added at a concentration of 5 μM. Photographs were taken by an optical microscope at an interval of 10 minutes for 1 hour immediately after the replacement. Based on the optical micrographs, the free curve tool of Dixi eXcope (Korea) program was used to measure the circumference of each organoid per hour and analyze the change in circumference.

[8] = test system: human large intestinal organoids; assay: Formation of large intestinal organoids (Example 6); assay type: cell-based; conditions: for organoid formation: 5 days
Source text: (§1) Large intestinal tissue was isolated from a human patient during surgery and used in experiments for forming organoids. The tissue was cut longitudinally from a proximal end to a distal end, and also laterally cut into pieces of about 5 mm length. The tissue pieces, which were isolated crypts, were washed with ice-cooled Dulbecco's phosphate-buffered saline (DPBS) until the supernatant liquid was sufficiently clear. Then, the crypts were isolated by treating with a Gentle Cell Dissociation Reagent (StemCell Technologies, Cambridge, MA), and filtering with a cell strainer. The crypts were mixed in collagen gel, and placed in each well of a well plate with the composition comprising the compound of the chemical formula 1 (namely, RS-246204). After keeping in 37° C. humidification incubator (5% CO2) for 5 days, the formed organoids were observed, and optical microscope photos were taken for analysis.
(§2) The control and experimental groups were classified as follows depending on the components of the medium composition used.
• ENR group: Basal media supplemented with EGF (E), Noggin (N) and R-spondin (R) was used to form human large intestinal organoids. • EN+RS-246204 group: Basal media supplemented with EGF (E), Noggin (N) and RS-246204 (25 or 50 μM) was used to form human large intestinal organoids.
• RS-246204 group: Basal media supplemented with RS-246204 (25 or 50 μM) was used to form human large intestinal organoids.
Noggin, thiazovivin, CHIR99021, and a pharmaceutically acceptable salt of CHIR99021 was not used in both the control and experimental groups.

[9] = test system: human large intestinal organoids; assay: Formation of large intestinal organoids, RS-246204 concentration series (Example 7); assay type: cell-based
Source text: as §1, with “keeping in a 37° C.” for “keeping in 37° C.”, “were observed, optical microscope” for “were observed, and optical microscope”, “taken for analysis, and organoid counts were analyzed using Leopard iX software.” for “taken for analysis.”
as §2
• RS 0 μM group: Basal media (Advanced DMEM/F12 media) not supplemented with RS-246204 (also referred to as “RS”) was used to form human large intestinal organoids. • RS 2.5 μM group: Basal media (Advanced DMEM/F12 media) supplemented with RS-246204 2.5 μM was used to form human large intestinal organoids.
• RS 5 μM group: Basal media (Advanced DMEM/F12 media) supplemented with RS-246204 5[…] μM was used to form human large intestinal organoids. • RS 50 μM group: Basal media (Advanced DMEM/F12 media) supplemented with RS-246204 50 μM was used to form human large intestinal organoids. • RS 100 μM group: Basal media (Advanced DMEM/F12 media) supplemented with RS-246204 100 μM was used to form human large intestinal organoids.

[10] = test system: large intestinal organoids; assay: Formation of organoids (Example 8), large intestinal; assay type: cell-based, human
Source text: (§3) Large intestinal tissue, adenoid tissue, and pancreatic cancer tissue were isolated from a patient during surgery and used in experiments for preparing and culturing organoids. Salivary tissue was isolated from a mouse and used in experiments for preparing and culturing organoids.
(§4) Each of the tissues was cut longitudinally from a proximal end to a distal end, and also laterally cut into pieces of about 5 mm length. The piece of the tissues obtained was washed with ice-cooled Dulbecco's phosphate-buffered saline (DPBS) until the supernatant liquid was sufficiently clear. Then, the tissues were isolated by treating with a Gentle Cell Dissociation Reagent (StemCell Technologies, Cambridge, MA), and filtering with a cell strainer. The isolated tissues were mixed in collagen gel, and placed in each well of a well plate. After keeping in 37° C. humidification incubator (5% CO2), the cultured organoids were observed, and optical microscope photos were taken for analysis.

[11] = test system: salivary organoids; assay: Formation of organoids (Example 8), salivary; assay type: cell-based, mouse
Source text: as §3, §4

[12] = test system: adenoid organoids; assay: Formation of organoids (Example 8), adenoid; assay type: cell-based, human; conditions: 1 μM
Source text: as §3, §4

[13] = test system: pancreatic cancer organoids; assay: Formation of organoids (Example 8), pancreatic cancer; assay type: cell-based, human
Source text: as §3, §4

SMILES: Cn1c(Sc2ccc3ccccc3n2)nc2c1c(=O)[nH]c(=O)n2C [RS-246204]
- growth of small intestinal organoids ([1]; among the final seven candidate compounds): highest growth of small intestinal organoids among the candidate materials
- growth and maintenance of organoids compared with R-spondin ([1]; numerical data and visual confirmation): could grow and maintain organoids most similar to R-spondin
- killing of organoids ([2]; concentration higher than 50 μM): most organoids were killed
- rate of non-budding organoids ([2]; concentration lower than 50 μM): increased
- growth efficiency and increase rate of the circumference according to date [3]: similarly observed
- growth and maintenance after the subculture [4]: growth and maintenance were also possible even after the subculture
- possibility to subculture ([4]; same manner as ENR culture solution): possible to subculture
- presence of intestinal stem cells, goblet cells, paneth cells, enteroendocrine cells and enterocyte (RT-PCR markers) ([5]; 4 days culture, Lgr5, muc-1, muc-2, defesing-5, ChgA, villin): all these cells were present
- relative amount of markers expressed (qRT-PCR) ([5]; ENR vs RS-246204 culture solutions): little difference between the ENR and RS-246204 culture solutions
- expression of Muc-2, lysozyme and Ki67 (immunofluorescence staining) [6]: confirm the expression of Muc-2, lysozyme, and Ki67
- function of epithelial cells after forskolin stimulation [7]: performed well as epithelial cells
- organoid formation ([8]; EN+RS-246204 group: basal media with EGF, Noggin and RS-246204 (25 or 50 μM)): human intestinal organoids were formed
- quantity of organoid calculated from the confluency ([8]; RS-246204 group (25 or 50 μM) compared with ENR or EN+RS-246204 groups): no significant difference
- organoid formation ([8]; RS-246204 group: basal media supplemented with RS-246204 only (25 or 50 μM)): human intestinal organoids were formed
- quantity of organoid calculated from the confluency ([9]; RS 2.5 μM compared with RS 0 μM group): no significant difference
- organoid formation ([9]; RS 2.5 μM in Advanced DMEM/F12, 5 days): human intestinal organoids were formed
- organoid formation ([9]; RS-246204 5, 50 or 100 μM in Advanced DMEM/F12, 5 days): human intestinal organoids were formed
- budding (crypt) formation [10]: grow while forming budding (crypt)
- growth after subculturing [10]: can grow even after subculturing
- formation and proliferation effects ([10]; 20 μM RS-246204): excellent formation and proliferation effects
- growth after subculturing [11]: can grow even after subculturing
- dose dependence of formation and proliferation ([11]; 1.25 μM, 2.5 μM or 5 μM): form and proliferate in a dose-dependent manner
- formation and proliferation effects ([11]; 1.25 μM, 2.5 μM or 5 μM RS-246204): excellent formation and proliferation effects
- dose dependence of formation and proliferation ([12]; 2 μM or 5 μM): form and proliferate in a dose-dependent manner
- formation and proliferation effects ([12]; 2 μM or 5 μM RS-246204): excellent formation and proliferation effects
- growth after subculturing [13]: can grow even after subculturing
- formation and proliferation effects ([13]; 30 μM RS-246204): excellent formation and proliferation effects
